# Data: patent US7767696B2, “Pyrazole derivatives” (Merck Patent GmbH, priority 2005, dated 2010)
# Experiments:
# VEGFR (KDR) = molecular target: T1, VEGFR (KDR) (Homo sapiens, UniProt P35968); assay: VEGF receptor kinase assay (33P incorporation into pEY substrate); format: biochemical; settings: read-out: Kinase-Inhibiting Activities IC50 VEGFR
# T1 construct: cloning the cytoplasmic domain of the KDR kinase as an in frame fusion at the carboxyl terminus of the GST gene; made in house; host or cells: Spodoptera frugiperda (Sf21) insect cells, baculovirus vector pAcG2T
# Experimental: VEGF receptor kinase activity is measured by incorporation of radiolabelled phosphate into 4:1 polyglutamic acid/tyrosine substrate (pEY). The phosphorylated pEY product is trapped on a filter membrane and the incorporation of radiolabelled phosphate is quantified by scintillation counting.
# The intracellular tyrosine kinase domains of human KDR (Terman, B. I. et al. Oncogene (1991) Vol. 6, pp. 1677-1683.) and Flt-1 (Shibuya, M. et al. Oncogene (1990) Vol. 5, pp. 519-524) were cloned as glutathione S-transferase (GST) gene fusion proteins. This was accomplished by cloning the cytoplasmic domain of the KDR kinase as an in frame fusion at the carboxyl terminus of the GST gene. Soluble recombinant GST-kinase domain fusion proteins were expressed in Spodoptera frugiperda (Sf21) insect cells (Invitrogen) using a baculovirus expression vector (pAcG2T, Pharmingen).
# Method B—VEGF Receptor Kinase Assay
# 1. Add 5 μl of inhibitor or control to the assay in 50% DMSO.
# 2. Add 35 μl of reaction mixture containing 5 μl of 10× reaction buffer, 5 μl of 25 mM ATP/10 μCi[^33P]ATP (Amersham) and 5 μl of 10× substrate.
# 3. Start the reaction by the addition of 10 μl of KDR (25 nM) in enzyme dilution buffer.
# 4. Mix and incubate at room temperature for 15 minutes.
# 5. Stop the reaction by the addition of 50 μl of stop solution.
# 6. Incubate at 4° C. for 15 minutes.
# 7. Transfer a 90 μl aliquot to filter plate.
# 8. Aspirate and wash 3 times with wash solution.
# 9. Add 30 μl of scintillation cocktail, seal plate and count in a Wallace Microbeta scintillation counter.
# TIE-2 = TIE-2 (Homo sapiens, UniProt Q02763); assay: TIE-2 kinase flashplate assay (phosphorylation of poly(Glu, Tyr) with 33P-ATP); format: biochemical; settings: read-out: Kinase-Inhibiting Activities IC50 TIE-2
# Experimental: The TIE-2 tests can be carried out, for example, analogously to the methods indicated in WO 02/44156.
# The assay determines the inhibiting activity of the substances to be tested in the phosphorylation of the substrate poly(Glu, Tyr) by Tie-2 kinase in the presence of radioactive ^33P-ATP. The phosphorylated substrate binds to the surface of a “flashplate” microtitre plate during the incubation time. After removal of the reaction mixture, the microtitre plate is washed a number of times and the radioactivity on its surface is subsequently measured. An inhibiting effect of the substances to be measured results in lower radioactivity compared with an undisturbed enzymatic reaction.
# T1 sequence (P35968 786-1356 limits assumed): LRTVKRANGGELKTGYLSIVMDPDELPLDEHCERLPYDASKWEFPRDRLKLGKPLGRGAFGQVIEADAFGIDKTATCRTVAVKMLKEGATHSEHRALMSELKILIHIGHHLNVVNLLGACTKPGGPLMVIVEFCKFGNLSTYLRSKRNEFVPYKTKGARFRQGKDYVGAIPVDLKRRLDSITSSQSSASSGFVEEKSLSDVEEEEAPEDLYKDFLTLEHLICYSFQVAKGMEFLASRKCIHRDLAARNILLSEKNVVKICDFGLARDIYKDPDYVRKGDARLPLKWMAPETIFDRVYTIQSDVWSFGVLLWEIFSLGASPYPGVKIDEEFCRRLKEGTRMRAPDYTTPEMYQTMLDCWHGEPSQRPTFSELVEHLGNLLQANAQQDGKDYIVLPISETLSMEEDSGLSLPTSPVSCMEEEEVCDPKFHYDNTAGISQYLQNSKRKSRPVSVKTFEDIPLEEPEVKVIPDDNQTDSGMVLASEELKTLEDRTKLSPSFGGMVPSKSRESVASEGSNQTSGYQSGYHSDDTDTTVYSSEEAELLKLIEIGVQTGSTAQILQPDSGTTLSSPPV
# Chain of TIE-2 (Q02763 23-1124, species assumed): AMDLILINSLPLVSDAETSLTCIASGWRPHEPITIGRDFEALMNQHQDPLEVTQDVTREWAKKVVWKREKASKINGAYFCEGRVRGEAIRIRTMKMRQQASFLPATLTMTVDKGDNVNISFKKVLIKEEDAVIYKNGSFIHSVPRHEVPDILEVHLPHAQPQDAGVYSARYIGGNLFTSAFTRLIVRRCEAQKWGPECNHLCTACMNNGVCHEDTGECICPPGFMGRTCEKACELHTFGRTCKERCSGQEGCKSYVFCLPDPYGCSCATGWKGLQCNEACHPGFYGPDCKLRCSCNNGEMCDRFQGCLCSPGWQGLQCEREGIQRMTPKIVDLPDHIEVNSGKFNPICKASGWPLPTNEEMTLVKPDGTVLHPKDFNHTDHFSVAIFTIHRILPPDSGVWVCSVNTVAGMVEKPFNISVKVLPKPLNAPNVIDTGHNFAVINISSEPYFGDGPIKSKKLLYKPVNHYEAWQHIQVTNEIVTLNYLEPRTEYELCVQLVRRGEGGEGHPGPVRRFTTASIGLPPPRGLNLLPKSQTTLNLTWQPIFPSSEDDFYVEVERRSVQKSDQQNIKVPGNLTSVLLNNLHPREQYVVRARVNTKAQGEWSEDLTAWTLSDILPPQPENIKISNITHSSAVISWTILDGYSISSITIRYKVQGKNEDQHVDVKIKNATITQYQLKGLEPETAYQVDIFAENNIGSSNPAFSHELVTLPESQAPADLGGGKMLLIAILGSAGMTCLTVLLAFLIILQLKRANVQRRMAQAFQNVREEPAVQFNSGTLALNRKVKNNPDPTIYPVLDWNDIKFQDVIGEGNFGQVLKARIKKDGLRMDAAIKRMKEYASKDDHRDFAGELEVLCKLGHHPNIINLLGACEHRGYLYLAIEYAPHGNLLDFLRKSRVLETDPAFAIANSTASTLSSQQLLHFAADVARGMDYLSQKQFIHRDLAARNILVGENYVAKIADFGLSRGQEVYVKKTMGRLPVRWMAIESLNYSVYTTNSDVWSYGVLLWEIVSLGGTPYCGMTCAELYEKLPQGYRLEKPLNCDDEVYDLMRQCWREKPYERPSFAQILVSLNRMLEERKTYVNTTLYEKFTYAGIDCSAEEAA
Compound,IC50 (VEGFR (KDR)) [nM],IC50 (TIE-2) [nM]
"CNC(=O)c1cc(Oc2ccc(NC(=O)Nc3cc(C(C)(C)C)nn3-c3cccc(C(F)(F)F)c3)cc2)ccn1 [Compound 11, 1-[4-(2-Methylaminocarbonylpyridin-4-yloxy)phenyl]-3-[5-tert-butyl-2-(3-trifluoromethylphenyl)-2H-pyrazol-3-yl]urea]",134,3.2
"CNC(=O)c1cc(Oc2ccc(NC(=O)Nc3cc(C(C)(C)C)nn3-c3ccc(F)cc3)cc2)ccn1 [Compound 1, 1-[4-(2-methylaminocarbonylpyridin-4-yloxy)phenyl]-3-[5-tert-butyl-2-(4-fluorophenyl)-2H-pyrazol-3-yl]urea]",110,6.5

# Now those with a lower IC50 (VEGFR (KDR)), led by results:
IC50 (VEGFR (KDR)) [nM],IC50 (TIE-2) [nM],Compound
33.5,4.3,"CNC(=O)c1cc(Oc2ccc(NC(=O)Nc3cc(-c4ccco4)nn3-c3ccc(C)cc3)cc2)ccn1 [Compound 2, 1-[4-(2-methylaminocarbonylpyridin-4-yloxy)phenyl]-3-[5-(furan-2-yl)-2-(p-tolyl)-2H-pyrazol-3-yl]urea]"
58,7.2,"CNC(=O)c1cc(Oc2ccc(NC(=O)Nc3cc(C(C)(C)C)nn3-c3ccc(C)cc3)cc2)ccn1 [Compound 8, 1-[4-(2-Methylaminocarbonylpyridin-4-yloxy)phenyl]-3-[5-tert-butyl-2-(p-tolyl)-2H-pyrazol-3-yl]urea]"
74.8,9.7,"CNC(=O)c1cc(Oc2ccc(NC(=O)Nc3cc(-c4ccco4)nn3-c3ccc(F)cc3)cc2)ccn1 [Compound 3, 1-[4-(2-Methylaminocarbonylpyridin-4-yloxy)phenyl]-3-[5-(furan-2-yl)-2-(4-fluorophenyl)-2H-pyrazol-3-yl]urea]"
